Laboratory results as given in patent US12318452B2, “Degraders of WEE1 kinase” (DANA-FARBER CANCER INSTITUTE, INC., priority 2018, dated 2025).

Key:
[1] = target: T1, Wee1 (Homo sapiens, UniProt P30291); test: Cellular degradation of Wee1 by immunoblot, 6-hour treatment of MOLT4 cells; format: cell-based; design: endogenous in cells; host or cells: MOLT4 (wild type; CRBN-/- as control); settings: for Wee1 degradation / percent Wee1 degradation at 1 µM: MOLT4 cells; for Wee1 degradation: immunoblot; for percent Wee1 degradation at 1 µM: MOLT-4, 1 μM, approximated by immunoblot, read-out: Extent of Degradation of Wee1
T1 sequence (P30291 whole entry): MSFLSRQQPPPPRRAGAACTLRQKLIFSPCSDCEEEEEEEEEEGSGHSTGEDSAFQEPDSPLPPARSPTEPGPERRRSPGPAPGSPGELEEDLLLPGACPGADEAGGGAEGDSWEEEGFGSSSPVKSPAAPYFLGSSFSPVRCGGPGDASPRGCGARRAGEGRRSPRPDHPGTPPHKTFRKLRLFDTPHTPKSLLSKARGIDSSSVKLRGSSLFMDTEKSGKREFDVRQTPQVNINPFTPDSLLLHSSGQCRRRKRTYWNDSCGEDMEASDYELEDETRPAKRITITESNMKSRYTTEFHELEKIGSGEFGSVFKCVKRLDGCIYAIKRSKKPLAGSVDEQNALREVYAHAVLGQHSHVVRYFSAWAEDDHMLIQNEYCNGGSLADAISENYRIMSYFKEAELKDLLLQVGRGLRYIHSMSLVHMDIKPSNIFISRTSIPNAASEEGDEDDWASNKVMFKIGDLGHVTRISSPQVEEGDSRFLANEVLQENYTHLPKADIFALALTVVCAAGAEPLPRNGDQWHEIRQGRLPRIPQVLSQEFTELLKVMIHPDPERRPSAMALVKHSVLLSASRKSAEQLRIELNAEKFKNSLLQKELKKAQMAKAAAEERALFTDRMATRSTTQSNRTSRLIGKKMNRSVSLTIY
Protocol: General Protocol: HT-29, MOLT4 wild type (WT) or CRBN^-/- cells were plated in a 6 well plate and treated for 6 hours with the indicated concentrations of the inventive compounds and control. HT-29 cells were cultured in McCoy's Media supplemented with 10% FBS and 1% Penicillin/Streptomycin. MOLT4 WT and CRBN^-/- cells were cultured in Roswell Park Memorial Institute (RPMI) medium supplemented with 10% FBS and 1% Penicillin/Streptomycin. Mycoplasma testing was performed every month and all lines were negative. Immunoblotting: Cells were washed with phosphate-buffered saline (PBS) and then lysed using radioimmunoprecipitation assay (RIPA) buffer supplemented with protease and phosphatase inhibitor cocktail (Roche) on ice for 15 minutes. The lysates were centrifuged at 14,000 rpm for 15 minutes at 4° C. and protein was quantified by bicinchoninic acid (BCA) assay (PierceTM). Primary antibodies used include: Wee1 ([…]) (Cell Signaling Technology®, 13084S), polo-like kinase 1 (PLK1) (Thermo Fisher Scientific, 37-7000), phosphor-cdc2 (Y15) (10A11) (Cell Signaling Technology®, […]), phospho-histone H3 ([…]) (Cell Signaling Technology®, […]), Ikaros ([…]) (Cell Signaling Technology®, 14859S), Aiolos ([…]) (Cell Signaling Technology®, 15103), casein kinase 1 alpha (Abcam®, 108296), β-actin (Cell Signaling Technology®, 8H10D10). FIG. 2A is an immunoblot showing that compound 13 degraded Wee1 after a 6-hour treatment in MOLT4 cells, and induced the downstream changes expected from Wee1 loss-including a decrease in phosphorylated cyclin-dependent kinase 1 (pCDK1) (Y15) and an increase in pH 3. […] Degradation of Wee1 by compound 13 was rescued in MOLT4 CRBN^-/- cells. MOLT4 WT and CRBN^-/- cells were plated in a 6-well plate at 2.25 million cells per well in 3 mL media (RPMI+10% FBS+1% Penn/Strep). After treatment with the indicated concentrations of candidate compounds, cells were incubated for 6 hours at 37° C. 5% CO2. To harvest, the cells were washed 1× with cold PBS, then collected by centrifugation. Cell pellets were lysed in RIPA buffer with protease and phosphatase inhibitors (Roche). Lysates were clarified by centrifugation, and protein concentrations were normalized using a BCA assay (Thermo ScientificTM). The samples were diluted with 4×LDS+10% β-mercaptoethanol, and were boiled at 95° C. for 5 minutes. Proteins of interest were then assessed by western blotting. […] The experimental protocol was the same as in Example 28.

[2] = target: kinome (Wee1, PLK1); test: KINOMEscan profiling; format: binding; settings: 1 μM
[3] = tested on: MOLT4 cells; test: Cell cycle analysis by propidium iodide staining; format: cell-based
Protocol: MOLT4 cells were plated at 1.5 million cells per well in a 6-well plate, with 3 mL of media per well. Immediately after plating, cells were treated with the indicated concentrations of the indicated compound. At the indicated time points, cells were collected by transferring each well to a 15 mL conical, centrifuging (1000 rpm for 3 min), and then washing the cell pellet 3× with cold PBS. Cell pellets were then fixed with 1 mL cold 80% ethanol in PBS at 4° C. overnight. The cell pellets were then washed by adding 1 mL of PBS and then centrifuging (1500 rpm for 5 minutes), followed by aspiration of the PBS/ethanol mix. Cells were resuspended in cell cycle staining solution (100 μg/mL of RNAse A (Roche, 10109169001) and 50 μg/mL propidium iodide (Life Technologies™, P1304MP), diluted in PBS, and incubated for 10 minutes at room temperature. Cell cycle data was acquired by flow cytometry on a Guava® easyCyte™ flow cytometer (Millipore™) using the InCyte™ software. Data was analyzed using FlowJo®. N=3 biological replicates were used for each treatment condition.

[4] = tested on: OVCAR8 cells; test: Synergy experiment, CellTiter-Glo co-treatment for 72 hours; format: cell-based; settings: 72-hr co-treatment with Olaparib
[5] = target: T1, Wee1; test: LanthaScreen FRET-based biochemical binding assay for Wee1; settings: LanthaScreen Binding activity assay; average of two replicates ± SD
Protocol: LanthaScreen™ assays were conducted for Wee1 in a 10-point dose response as performed in the commercial assay service by Life Technologies™. Z′-LYTE™ assays were conducted for PLK1 as performed in the commercial assay service by Life Technologies™ in a 10-point dose response using Km ATP concentrations.

Compound	Wee1 degradation in CRBN−/− cells ([1]; MOLT4 CRBN−/− cells)	Wee1 degradation [1]	percent Wee1 degradation at 1 µM [1]	Kinase engagement in KINOMEscan [2]	G2-M cells ([3]; 100 nM, 24-hr treatment, MOLT4 cells, control 19%)	Cell cycle effects in CRBN−/− cells ([3]; CRBN−/− MOLT4 cells, 24 hours)	Fold lower doses than AZD1775 inducing premature mitotic entry ([3]; MOLT4 cells)	Synergy with Olaparib [4]	IC50 [5]	Effect on the cell cycle ([3]; 100 nM, 24-hr, MOLT4 cells)
C=CCn1c(=O)c2cnc(Nc3ccc(N4CCN(CCCNc5cccc6c5C(=O)N(C5CCC(=O)NC5=O)C6=O)CC4)cc3)nc2n1-c1cccc(C(C)(C)O)n1 (centres unmarked) [Compound 13, 4-((3-(4-(4-((2-allyl-1-(6-(2-hydroxypropan-2-yl)pyridin-2-yl)-3-oxo-2,3-dihydro-1H-pyrazolo[3,4-d]pyrimidin-6-yl)amino)phenyl)piperazin-1-yl)propyl)amino)-2-(2,6-dioxopiperidin-3-yl)isoindoline-1,3-dione]	rescued	degraded Wee1	> 50%	strong engagement of both Wee1 and PLK1	34%	absent	10 fold	synergized with Olaparib	3.58 ± 0.36 nM	–
C=CCn1c(=O)c2cnc(Nc3ccc(N4CCN(CCCNc5cccc6c5C(=O)N(C5CCC(=O)N(C)C5=O)C6=O)CC4)cc3)nc2n1-c1cccc(C(C)(C)O)n1 (centres unmarked) [Compound 20, 4-((3-(4-(4-((2-allyl-1-(6-(2-hydroxypropan-2-yl)pyridin-2-yl)-3-oxo-2,3-dihydro-1H-pyrazolo[3,4-d]pyrimidin-6-yl)amino)phenyl)piperazin-1-yl)propyl)amino)-2-(1-methyl-2,6-dioxopiperidin-3-yl)isoindoline-1,3-dione]	–	did not degrade Wee1	< 25%	–	–	–	–	less synergistic activity	7.38 ± 0.47 nM	did not appreciably affect the cell cycle
